Assay results as given in patent publication US20230382925A1, “MODULATORS OF CYSTIC FIBROSIS TRANSMEMBRANE CONDUCTANCE REGULATOR” (VERTEX PHARMACEUTICALS INCORPORATED, priority 2020, published 2023).
Read-outs that look alike come from different tables or passages of the source. Each block holds one molecule with its values, some of them ahead of it.

Target: CFTR (Homo sapiens, UniProt P13569)
Assay: Membrane Potential Dye, Enteroid Assay B
Assay type: cell-based
Outline: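 Activity given as % of a triple-combination reference (1 μM and 3 μM correctors, 300 nM acute potentiator). Enteroids were preincubated 18-24 h with compound; chloride efflux then measured 15 min by methyl oxonol fluorescence after forskolin/IBMX/Compound III stimulation in chloride-free buffer containing CaCCinh-A01 and Chicago Sky Blue.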

[1] = Table 10, read-out: Ent. B EC50

Sequence of CFTR (P13569 with tags, fused parts or gaps DEL508-508): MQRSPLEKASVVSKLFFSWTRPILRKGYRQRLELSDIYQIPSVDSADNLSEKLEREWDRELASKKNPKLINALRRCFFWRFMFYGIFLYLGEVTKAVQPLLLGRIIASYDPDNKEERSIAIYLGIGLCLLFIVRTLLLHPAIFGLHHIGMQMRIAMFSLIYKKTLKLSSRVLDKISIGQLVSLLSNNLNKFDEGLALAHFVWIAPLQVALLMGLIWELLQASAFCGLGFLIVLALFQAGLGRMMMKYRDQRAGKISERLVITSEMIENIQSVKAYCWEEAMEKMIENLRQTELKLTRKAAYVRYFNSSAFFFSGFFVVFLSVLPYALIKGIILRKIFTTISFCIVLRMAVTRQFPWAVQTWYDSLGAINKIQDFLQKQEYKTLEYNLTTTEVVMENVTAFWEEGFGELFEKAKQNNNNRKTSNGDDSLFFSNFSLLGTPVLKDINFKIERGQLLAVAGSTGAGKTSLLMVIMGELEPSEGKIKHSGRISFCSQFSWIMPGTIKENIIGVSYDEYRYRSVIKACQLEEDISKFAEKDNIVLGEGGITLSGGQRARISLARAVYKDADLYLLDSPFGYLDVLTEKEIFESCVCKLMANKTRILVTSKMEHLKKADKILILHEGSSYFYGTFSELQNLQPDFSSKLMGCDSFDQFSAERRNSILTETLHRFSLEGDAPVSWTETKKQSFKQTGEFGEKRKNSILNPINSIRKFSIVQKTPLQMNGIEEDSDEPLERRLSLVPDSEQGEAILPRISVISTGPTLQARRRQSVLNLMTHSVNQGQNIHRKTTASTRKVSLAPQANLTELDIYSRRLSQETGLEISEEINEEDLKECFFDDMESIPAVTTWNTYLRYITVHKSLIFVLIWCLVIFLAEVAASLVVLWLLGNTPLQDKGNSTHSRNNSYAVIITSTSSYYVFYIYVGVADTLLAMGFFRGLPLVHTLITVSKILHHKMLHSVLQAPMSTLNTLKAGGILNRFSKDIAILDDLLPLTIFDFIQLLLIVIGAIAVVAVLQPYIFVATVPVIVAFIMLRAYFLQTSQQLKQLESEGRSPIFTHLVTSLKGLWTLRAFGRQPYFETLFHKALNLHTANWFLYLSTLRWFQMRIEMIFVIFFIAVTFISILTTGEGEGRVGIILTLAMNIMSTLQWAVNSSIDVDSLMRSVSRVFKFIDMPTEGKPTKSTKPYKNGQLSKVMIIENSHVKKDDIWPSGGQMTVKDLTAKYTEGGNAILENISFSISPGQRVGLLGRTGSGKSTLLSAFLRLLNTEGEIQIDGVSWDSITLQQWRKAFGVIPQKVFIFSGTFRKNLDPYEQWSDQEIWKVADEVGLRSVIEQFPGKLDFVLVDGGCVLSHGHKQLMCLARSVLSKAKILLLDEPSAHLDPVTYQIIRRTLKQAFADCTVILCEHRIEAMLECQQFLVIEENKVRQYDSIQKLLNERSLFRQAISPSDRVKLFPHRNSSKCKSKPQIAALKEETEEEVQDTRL

Structure (SMILES): Cc1cccc(C)c1-c1cc2nc(n1)NS(=O)(=O)c1cccc(c1)C(=O)N(C1CC3(C1)CN(C(=O)OC(C)C)C3)[C@H](CC(C)C)CO2 [Compound 102, Isopropyl 6-[(11R)-6-(2,6-dimethylphenyl)-11-isobutyl-2,2,13-trioxo-9-oxa-2λ^6-thia-3,5,12,19-tetrazatricyclo[12.3.1.14,8]nonadeca-1(18),4(19),5,7,14,16-hexaen-12-yl]-2-azaspiro[3.3]heptane-2-carboxylate]
- Ent. B Max Activity (%): +++ (+++ is >60%)
- EC50 (read-out: Ent. B EC50): < 1000 nM

Structure (SMILES): Cc1cccc(C)c1-c1cc2nc(n1)NS(=O)(=O)c1cccc(c1)C(=O)N(C1CC3(C1)CN(C(C)C)C3)[C@H](CC(C)C)CO2 [Compound 103, (11R)-6-(2,6-Dimethylphenyl)-11-isobutyl-12-(2-isopropyl-2-azaspiro[3.3]heptan-6-yl)-2,2-dioxo-9-oxa-2λ^6-thia-3,5,12,19-tetrazatricyclo[12.3.1.14,8]nonadeca-1(18),4(19),5,7,14,16-hexaen-13-one]
- Ent. B Max Activity (%): +++ (+++ is >60%)
- EC50 (read-out: Ent. B EC50): < 1000 nM

Structure (SMILES): COCCN1CC2(CC(N3C(=O)c4cccc(c4)S(=O)(=O)Nc4nc(cc(-c5c(C)cccc5C)n4)OC[C@H]3CC(C)C)C2)C1 [Compound 104, (11R)-6-(2,6-Dimethylphenyl)-11-isobutyl-12-[2-(2-methoxyethyl)-2-azaspiro[3.3]heptan-6-yl]-2,2-dioxo-9-oxa-2λ^6-thia-3,5,12,19-tetrazatricyclo[12.3.1.14,8]nonadeca-1(18),4(19),5,7,14,16-hexaen-13-one]
- Ent. B Max Activity (%) (Table 9): +++ (+++ is >60%)

Structure (SMILES): Cc1cccc(C)c1-c1cc2nc(n1)NS(=O)(=O)c1cccc(c1)C(=O)N(C1CN(C(=O)OC(C)C)C(C)(C)C1)[C@H](CC(C)C)CO2 (stereo partly drawn) [Compound 110, Propan-2-yl 4-[(11R)-6-(2,6-dimethylphenyl)-11-(2-methylpropyl)-2,2,13-trioxo-9-oxa-2λ^6-thia-3,5,12,19-tetraazatricyclo[12.3.1.14,8]nonadeca-1(17),4(19),5,7,14(18),15-hexaen-12-yl]-2,2-dimethylpyrrolidine-1-carboxylate]
- Ent. B Max Activity (%) (Table 9): +++ (+++ is >60%)
- EC50 (Table 9, read-out: Ent. B EC50): < 1000 nM

Structure (SMILES): Cc1cccc(C)c1-c1cc2nc(n1)NS(=O)(=O)c1cccc(c1)C(=O)N(C1CC3(C1)CN(C(=O)OC(C)C)C3)[C@H](CC1(C(F)(F)F)CC1)CO2 [Compound 133, Propan-2-yl 6-[(11R)-6-(2,6-dimethylphenyl)-2,2,13-trioxo-11-{[1-(trifluoromethyl)cyclopropyl]methyl}-9-oxa-2λ^6-thia-3,5,12,19-tetraazatricyclo[12.3.1.14,8]nonadeca-1(17),4,6,8(19),14(18),15-hexaen-12-yl]-2-azaspiro[3.3]heptane-2-carboxylate]
- Ent. B Max Activity (%) (Table 9): +++ (+++ is >60%)
- EC50 (Table 9, read-out: Ent. B EC50): < 1000 nM

Structure (SMILES): Cc1cccc(C)c1-c1cc2nc(n1)NS(=O)(=O)c1cccc(c1)C(=O)N(C1CC3(CCN3C(=O)CO)C1)[C@H](CC(C)(C)C)CO2 (stereo partly drawn) [Compound 146, (11R)-6-(2,6-Dimethylphenyl)-11-(2,2-dimethylpropyl)-12-[1-(2-hydroxyacetyl)-1-azaspiro[3.3]heptan-6-yl]-2,2-dioxo-9-oxa-2λ^6-thia-3,5,12,19-tetrazatricyclo[12.3.1.14,8]nonadeca-1(18),4(19),5,7,14,16-hexaen-13-one]
- Ent. B Max Activity (%) (Table 10): +++ (+++ is >60%)
- EC50 [1]: < 1000 nM

Structure (SMILES): Cc1cccc(C)c1-c1cc2nc(n1)NS(=O)(=O)c1cccc(c1)C(=O)N(C1CC(CO)(CO)C1)[C@H](CC(C)(C)C)CO2 [Compound 158, (11R)-12-[3,3-Bis(hydroxymethyl)cyclobutyl]-6-(2,6-dimethylphenyl)-11-(2,2-dimethylpropyl)-9-oxa-2λ^6-thia-3,5,12,19-tetraazatricyclo[12.3.1.14,8]nonadeca-1(17),4(19),5,7,14(18),15-hexaene-2,2,13-trione]
- Ent. B Max Activity (%) (Table 10): +++ (+++ is >60%)
- EC50 [1]: 1000 to 3000 nM

Structure (SMILES): Cc1cccc(C)c1-c1cc2nc(n1)NS(=O)(=O)c1cccc(n1)C(=O)N(C1CC3(CC3)C1)[C@H](CC(C)C)CO2 [Compound 164, (11R)-6-(2,6-Dimethylphenyl)-11-isobutyl-2,2-dioxo-12-spiro[2.3]hexan-5-yl-9-oxa-2λ^6-thia-3,5,12,18,19-pentazatricyclo[12.3.1.14,8]nonadeca-1(18),4(19),5,7,14,16-hexaen-13-one]
- Ent. B Max Activity (%): +++ (+++ is >60%)
- EC50 (read-out: Ent. B EC50): < 1000 nM

Structure (SMILES): CC(C)C[C@@H]1COc2cc(-c3c(C(F)(F)F)cccc3C(F)(F)F)nc(n2)NS(=O)(=O)c2cccc(c2)C(=O)N1C1CC2(CC2)C1 [Compound 186, (11R)-6-[2,6-Bis(trifluoromethyl)phenyl]-11-isobutyl-2,2-dioxo-12-spiro[2.3]hexan-5-yl-9-oxa-2λ^6-thia-3,5,12,19-tetrazatricyclo[12.3.1.14,8]nonadeca-1(18),4,6,8(19),14,16-hexaen-13-one]
- Ent. B Max Activity (%) (Table 9): ++ (++ is 30-60%)
- EC50 (Table 9, read-out: Ent. B EC50): < 1000 nM

Structure (SMILES): COCCCN1CCC2(CC1)CC(N1C(=O)c3cccc(c3)S(=O)(=O)Nc3nc(cc(-c4c(C)cccc4C)n3)OC[C@H]1CC(C)(C)C(F)(F)F)C2 [Compound 188, (11R)-6-(2,6-dimethylphenyl)-12-[7-(3-methoxypropyl)-7-azaspiro[3.5]nonan-2-yl]-11-(3,3,3-trifluoro-2,2-dimethylpropyl)-9-oxa-2λ^6-thia-3,5,12,19-tetraazatricyclo[12.3.1.14,8]nonadeca-1(17),4(19),5,7,14(18),15-hexaene-2,2,13-trione]
- Ent. B Max Activity (%) (Table 9): +++ (+++ is >60%)
- EC50 (Table 9, read-out: Ent. B EC50): < 1000 nM

Structure (SMILES): Cc1cccc(C)c1-c1cc2nc(n1)NS(=O)(=O)c1cccc(c1)C(=O)N(C1CC3(CCN(CCOC(C)C)CC3)C1)[C@H](CC(C)(C)C(F)(F)F)CO2 [Compound 189, (11R)-6-(2,6-dimethylphenyl)-12-{7-[2-(propan-2-yloxy)ethyl]-7-azaspiro[3.5]nonan-2-yl}-11-(3,3,3-trifluoro-2,2-dimethylpropyl)-9-oxa-2λ^6-thia-3,5,12,19-tetraazatricyclo[12.3.1.14,8]nonadeca-1(17),4(19),5,7,14(18),15-hexaene-2,2,13-trione]
- Ent. B Max Activity (%) (Table 9): +++ (+++ is >60%)
- EC50 (Table 9, read-out: Ent. B EC50): < 1000 nM

Structure (SMILES): COCCN1CCC2(CC1)CC(N1C(=O)c3cccc(c3)S(=O)(=O)Nc3nc(cc(-c4c(C)cccc4C)n3)OC[C@H]1CC(C)(C)C(F)(F)F)C2 [Compound 190, (11R)-6-(2,6-dimethylphenyl)-12-[7-(2-methoxyethyl)-7-azaspiro[3.5]nonan-2-yl]-11-(3,3,3-trifluoro-2,2-dimethylpropyl)-9-oxa-2λ^6-thia-3,5,12,19-tetraazatricyclo[12.3.1.14,8]nonadeca-1(17),4(19),5,7,14(18),15-hexaene-2,2,13-trione]
- Ent. B Max Activity (%) (Table 9): +++ (+++ is >60%)
- EC50 (Table 9, read-out: Ent. B EC50): < 1000 nM

Results, then the molecule that gave them:

- Ent. B Max Activity (%) (Table 10): +++ (+++ is >60%)
- EC50 [1]: < 1000 nM
Structure (SMILES): Cc1cccc(C)c1-c1cc2nc(n1)NS(=O)(=O)c1cccc(c1)C(=O)N(c1cnn(C)c1)[C@H](CC(C)C)CO2 [Compound 97, (11R)-6-(2,6-Dimethylphenyl)-11-isobutyl-12-(1-methylpyrazol-4-yl)-2,2-dioxo-9-oxa-2λ^6-thia-3,5,12,19-tetrazatricyclo[12.3.1.14,8]nonadeca-1(18),4(19),5,7,14,16-hexaen-13-one]

- Ent. B Max Activity (%): +++ (+++ is >60%)
- EC50 (read-out: Ent. B EC50): < 1000 nM
Structure (SMILES): COCCN1CCC2(CC1)CC(N1C(=O)c3cccc(c3)S(=O)(=O)Nc3nc(cc(-c4c(C)cccc4C)n3)OC[C@H]1CC1(C(F)(F)F)CC1)C2 [Compound 128, (11R)-6-(2,6-Dimethylphenyl)-12-[7-(2-methoxyethyl)-7-azaspiro[3.5]nonan-2-yl]-2,2-dioxo-11-[[1-(trifluoromethyl)cyclopropyl]methyl]-9-oxa-2λ^6-thia-3,5,12,19-tetrazatricyclo[12.3.1.14,8]nonadeca-1(18),4(19),5,7,14,16-hexaen-13-one]

- Ent. B Max Activity (%): +++ (+++ is >60%)
- EC50 (read-out: Ent. B EC50): < 1000 nM
Structure (SMILES): Cc1cccc(C)c1-c1cc2nc(n1)NS(=O)(=O)c1cccc(c1)C(=O)N(C1CC3(CCN(CCOC(C)C)CC3)C1)[C@H](CC1(C(F)(F)F)CC1)CO2 [Compound 129, (11R)-6-(2,6-dimethylphenyl)-12-[7-(2-isopropoxyethyl)-7-azaspiro[3.5]nonan-2-yl]-2,2-dioxo-11-[[1-(trifluoromethyl)cyclopropyl]methyl]-9-oxa-2λ^6-thia-3,5,12,19-tetrazatricyclo[12.3.1.14,8]nonadeca-1(18),4(19),5,7,14,16-hexaen-13-one]

- Ent. B Max Activity (%) (Table 9): +++ (+++ is >60%)
- EC50 (Table 9, read-out: Ent. B EC50): < 1000 nM
Structure (SMILES): Cc1cccc(C)c1-c1cc2nc(n1)NS(=O)(=O)c1cccc(c1)C(=O)N(C1CC3(C1)CN(C(C)C)C3)[C@H](CC1(C(F)(F)F)CC1)CO2 [Compound 132, (11R)-6-(2,6-Dimethylphenyl)-12-(2-isopropyl-2-azaspiro[3.3]heptan-6-yl)-2,2-dioxo-11-[[1-(trifluoromethyl)cyclopropyl]methyl]-9-oxa-2λ^6-thia-3,5,12,19-tetrazatricyclo[12.3.1.14,8]nonadeca-1(18),4(19),5,7,14,16-hexaen-13-one]

- Ent. B Max Activity (%): +++ (+++ is >60%)
- EC50 (read-out: Ent. B EC50): < 1000 nM
Structure (SMILES): COCCN1CCC2(CC1)CC(N1C(=O)c3cccc(c3)S(=O)(=O)Nc3nc(cc(-c4c(C)cccc4C)n3)OC[C@H]1CC(C)(C)C)C2 [Compound 138, (11R)-6-(2,6-Dimethylphenyl)-11-(2,2-dimethylpropyl)-12-[7-(2-methoxyethyl)-7-azaspiro[3.5]nonan-2-yl]-2,2-dioxo-9-oxa-2λ^6-thia-3,5,12,19-tetrazatricyclo[12.3.1.14,8]nonadeca-1(18),4(19),5,7,14,16-hexaen-13-one]

- Ent. B Max Activity (%): +++ (+++ is >60%)
- EC50 (read-out: Ent. B EC50): < 1000 nM
Structure (SMILES): Cc1cccc(C)c1-c1cc2nc(n1)NS(=O)(=O)c1cccc(c1)C(=O)N(C1CC3(CCN(C(=O)OC(C)C)CC3)C1)C[C@@H](C)O2 [Compound 181, Isopropyl 2-[(10R)-6-(2,6-dimethylphenyl)-10-methyl-2,2,13-trioxo-9-oxa-2λ^6-thia-3,5,12,19-tetrazatricyclo[12.3.1.14,8]nonadeca-1(18),4(19),5,7,14,16-hexaen-12-yl]-7-azaspiro[3.5]nonane-7-carboxylate]
